Experimental data published in US20120301551A1, “COMPOUNDS AND COMPOSITIONS FOR TREATING NEURONAL DEATH OR NEUROLOGICAL DYSFUNCTION” (Neurotech Pharmaceuticals Co., Ltd., priority 2005, published 2012).

What was measured:
Assay type in all cases: in vivo, mouse
[1] = tested on: APPswe/PS1deltaE9 double transgenic mice; assay: brain Aβ40/Aβ42 levels in APPswe/PS1deltaE9 double transgenic mice (ELISA); conditions: 25 mg/kg/d chemical 01 or 62.5 mg/kg/day ibuprofen for 14.5 months
Experimental: SDS-soluble/insoluble Aβ40 or Aβ42 levels were analyzed by colorimetric sandwich ELISA kit (BIOSOURCE, Camarillo, Calif.).

[2] = tested on: APPswe/PS1deltaE9 double transgenic mice; assay: Morris water maze in APPswe/PS1deltaE9 double transgenic mice; conditions: 25 mg/kg/day chemical 01 or 62.5 mg/kg/day ibuprofen for 14.5 months (3~17.5 months)
Experimental: After administration of 14.5 months, the cognitive function was analyzed by Morris water maze test like example 10-3-1 (mean±SEM, n=3-5).
(§1) 17.5 month-old APPswe/PS1deltaE9 double transgenic mice were fed chow alone (saline only), or containing 25 mg/kg/day of chemical—01, for […] (3˜17.5 month).
The cognitive function was analyzed by Morris water maze test. Mice ware trained to perform a hidden platform task in the Morris water maze. The latency to find the platform was recorded for each mouse.

[3] = tested on: APPswe/PS1deltaE9 double transgenic mice; assay: open field activity in APPswe/PS1deltaE9 double transgenic mice; conditions: 25 mg/kg/day chemical 01 or 62.5 mg/kg/day ibuprofen for 14.5 months (3~17.5 months)
Experimental: After administration of drug for 14.5 months, Open field activity test was performed to evaluate locomotor activity and exploratory behavior. 4×4 of scale marks were drawn in white acryl box having a size of 60 cm×60 cm×35 cm (width×length×height) to make sixteen squares. Four squares in the center became center zone and twelve squares around the center zone became peripary zone. Mice were laid into transparent acryl tube (diameter: about 3.5 inches) laid at the left corner of the acryl box for 30 seconds. After 30 seconds, acryl tube was removed to make mouse free. Experiment was once performed for each mouse for 5 minutes. The distance traveled in the open field was recorded (mean±SEM, n=3-5).
as §1
Open field activity was used to evaluate locomotor activity and exploratory behavior. The distance traveled in the open field was recorded and performance was analyzed after the testing took place.

Question: What does the source list for CC(C)Cc1ccc(C(C)C(=O)O)cc1 (stereo not drawn) [ibuprofen, reference compound]?
Answer: SDS-soluble/insoluble Aβ40 or Aβ42 levels, in words [1]: did not reduce; escape latency / cognitive function (Morris water maze) [2]: did not improved cognitive function; open field activity (distance traveled) [3]: non-significant trend
